System: HaCaT human keratinocytes
Test: Affymetrix GeneChip microarray, transcriptional response to β-carotene and/or UVA
Type: cell-based
Details: UVA and β-carotene 1.5 μM
Method: The cell culture experiments were carried out as described. Briefly, a subclone of passage 65 HaCaT keratinocytes, selected for differentiation capacity, was used at passages 16 to 23 after subcloning. 2×10^5 cells were seeded per 60 millimeter dish. Starting the following day, the cells were pretreated for 2 days with β-carotene at 1.5 μM, a typical concentration in human plasma after moderate dietary supplementation)
β-carotene-containing medium was prepared as follows. Fresh all-E-β-carotene (DSM Nutritional Products, Kaiseraugst, Switzerland) stock solution in THF (containing 0.025% BHT; Fluka Chemie A G, Switzerland) was diluted 1:2 with ethanol and added to cell culture medium to a final concentration of 1.5 μM β-carotene. The solvent concentration in the medium was 0.5% for all treatments. β-carotene-containing medium was prepared fresh for the daily medium changes.
On day 3 of the experiment, the cells were irradiated with a Hönle sun lamp Sol 500 (270 kJ/m^2; Dr. Hönle, Germany).
Five independent, factorially designed cell irradiation experiments were analyzed by microarray hybridization. For each experiment, one chip was hybridized per treatment condition. GeneChip® analysis was done as described in [132], which is incorporated by reference, as if recited in full herein. Gene regulation by β-carotene and/or UVA was calculated relative to placebo.
Changes in gene expression were included in further analysis only if the change factor was […], and if unpaired t-tests yielded p values≦0.05. Upregulations by a […] are labeled bold, downregulations by a change factor of […] are labeled bold italics. (Table 1) To identify the pathways affected by the treatments functional information on the genes was retrieved from public literature databases.

`CC1=C(/C=C/C(C)=C/C=C/C(C)=C/C=C/C=C(C)/C=C/C=C(C)/C=C/C2=C(C)CCCC2(C)C)C(C)(C)CCC1` [β-carotene, All-E-β-carotene] was tested, and the “5-aminolevulinate synthase (Y00451) change factor” value was 0.41, the “AAC11 (U83857) change factor” value was −0.05 and the “AP-2α (M36711) change factor” value was −0.67. For the same compound, the “ATF4; activating transcription factor 4 (AL022312) change factor” value was 0.96, the “BAXγ (L22475) change factor” value was −0.34 and the “BAXδ (U19599) change factor” value was 0.67. The “BMP2a; bone morphogenetic protein 2a (bmp-2a) (M22489) change factor” value was 0.16, the “BPAG1; bullous pemphigoid antigen (M69225) change factor” value was 0.12 and the “BUB1; mitotic checkpoint kinase (AF053305) change factor” value was −0.81. The “C-FOS (V01512) change factor” value was 2.49, the “C-FOS (V01512, second entry) change factor” value was 1.36 and the “C-JUN (J04111) change factor” value was 0.93. The “C/EBPβ; NF-IL6 (X52560) change factor” value was 0.83, the “C/EBPγ (U20240) change factor” value was 0.71 and the “C/EBPδ; NF-IL6-β (M83667) change factor” value was 0.31. The “CDK activating kinase (X77743) change factor” value was 0.57, the “CDK-inhibitor p57KIP2 (KIP2) mrna (U22398) change factor” value was 0.79 and the “CENP-A; centromere protein-A (U14518) change factor” value was −1.82. The “CENP-E; centromere protein-E (Z15005) change factor” value was −1.44, the “CENP-F; mitosin (U30872) change factor” value was −1.22 and the “CEP110; centriole associated protein (AF083322) change factor” value was −4.18. The “CIP2; CDKN3 (L25876) change factor” value was −0.81, the “CLARP; CFLAR, alternatively spliced (AF005775) change factor” value was −0.62 and the “COUP-TF II; ARP1; apoA1 regulatory protein (M64497) change factor” value was 0.81. For the same compound, the “COX-2, cyclooxygenase-2 (U04636) change factor” value was 0.2, the “CRADD; death domain containing protein (U84388) change factor” value was −0.87 and the “DKK-1; dickkopf-1 (AB020315) change factor” value was 1.4. The “DNA ligase III (X84740) change factor” value was −0.71, the “DNA polymerase α-subunit (X06745) change factor” value was −0.63 and the “DNA primase (subunit p58) (X74331) change factor” value was −0.41. For the same compound, the “DNA-PK, catalytic subunit (U47077) change factor” value was −1.06, the “DSC2; desmocollin type 2a and 2b (X56807) change factor” value was −0.29 and the “DUSP5 (U15932) change factor” value was 2.84. For the same compound, the “DUSP7 (X93921) change factor” value was 0.99, the “EGFR; precursor of epidermal growth factor receptor (X00588) change factor” value was −0.69 and the “ENDOGL-2 (AB020735) change factor” value was 0.41. The “ERBB3 precursor; similar to (H06628) change factor” value was −0.78, the “ERCC5; excision repair protein (L20046) change factor” value was −0.95 and the “ERF-2 (X78992) change factor” value was 0.99. The “FGFR2; FGF receptor 2 (M87770) change factor” value was −0.48, the “FGFR3; FGF receptor (M64347) change factor” value was −2.58 and the “FRA-1 (X16707) change factor” value was 0.71. For the same compound, the “FRA-2 (X16706) change factor” value was −0.13, the “GADD34 (U83981) change factor” value was 2.62 and the “GADD153 (S62138) change factor” value was 7.64. The “GDF-1; growth/differentiation factor 1 (gdf-1) (M62302) change factor” value was −0.43, the “GEM (U10550) change factor” value was 3.91 and the “HB-EGF; heparin-binding egf-like growth factor (M60278) change factor” value was 3.32. For the same compound, the “HER3; epidermal growth factor receptor (her3) (M34309) change factor” value was −1.12, the “HER3; epidermal growth factor receptor (her3) (M34309, second entry) change factor” value was −1.56 and the “HM74; PAR1-related (D10923) change factor” value was −0.55. For the same compound, the “HOXA7 (AJj005814) change factor” value was −0.52, the “HOXC6 (S82986) change factor” value was −0.82 and the “HOXD4 (X59373) change factor” value was −0.76. For the same compound, the “ID1 (X77956) change factor” value was −2.43, the “ID1 (X77956, second entry) change factor” value was −4.7 and the “ID3; HEIR1 (AL021154) change factor” value was −4.35. For the same compound, the “ID-2H (D13891) change factor” value was −2.68, the “ID-4 (AL022726) change factor” value was −0.49 and the “IEX-1 (S81914) change factor” value was 0.91. The “IFIT1; IFI56 (M24594) change factor” value was −0.61, the “IFIT1; IFI56 (M24594, second entry) change factor” value was −0.71 and the “IFIT2; ISG-54K (M14660) change factor” value was 1.17. The “IFIT2; ISG-54K (M14660, second entry) change factor” value was 0.58, the “IFIT4; IFI60; cig5; RIGG (AF026941) change factor” value was 5.46 and the “IGF-BP 3; insulin-like growth factor-binding protein-3 gene (M35878) change factor” value was 1.64. For the same compound, the “IGF-BP 3; insulin-like growth factor-binding protein-3 gene (M35878, second entry) change factor” value was 1.73, the “IL6; Interleukin 6; IFNβα2a (X04430) change factor” value was 2.29 and the “IL18; IGIF (IFNγ inducing factor) (D49950) change factor” value was −0.18. For the same compound, the “ILK; integrin-linked kinase (U40282) change factor” value was −0.51, the “IRF-1; interferon regulatory factor 1 (L05072) change factor” value was 0.29 and the “IRF-7b; interferon regulatory factor 7b (U53831) change factor” value was 0.49. The “IRF-9; p48; ISGF3γ (M97935) change factor” value was −0.67, the “JUNB (M29039) change factor” value was −0.72 and the “JUNB (X51345) change factor” value was −0.7. For the same compound, the “JUND (X56681) change factor” value was 3.2, the “JUND (X56681, second entry) change factor” value was 1.83 and the “JUND (X56681, third entry) change factor” value was 1.66. The “K-RAS (M54968) change factor” value was −0.64, the “KINESIN-LIKE 2; HSET (AL021366) change factor” value was −0.72 and the “KINESIN-LIKE 2; HSET (D14678) change factor” value was −0.72. For the same compound, the “KINESIN-LIKE 2; HSET (D14678, second entry) change factor” value was −1.15, the “KINESIN-LIKE 5; KNSL5; MKLP-1; mitotic kinesin-like protein-1 (X67155) change factor” value was −1.04 and the “KINESIN-LIKE 6; KNSL6; MCAK; mitotic centromere-associated kinesin (U63743) change factor” value was −1.61. The “KINESIN_LIKE 1; KNSL1; HKSP; EG5 (U37426) change factor” value was −0.92, the “KLF4; EZF (epithelial Zn finger) (U70663) change factor” value was 3.46 and the “KRS-2; stress responsive serine/threonine protein kinase (U60207) change factor” value was −0.35. For the same compound, the “KU (p70/p80) (M30938) change factor” value was −0.64, the “LIM kinase 2 (limk-2) (D45906) change factor” value was −0.66 and the “Lekti (AJ228139) change factor” value was 0.75. For the same compound, the “MAD3L; mitotic checkpoint kinase (AF053306) change factor” value was −2.45, the “MAF-F (AL021977) change factor” value was 1.71 and the “MAP kinase phosphatase (mkp-2) (U48807) change factor” value was 1.12. For the same compound, the “MAPK9; JNK2 (U09759) change factor” value was −0.57, the “MAPK14; p38; csaids binding protein (csbp1) (L35263) change factor” value was −0.53 and the “MAPKK3b; MKK3b (D87116) change factor” value was 0.62. For the same compound, the “MAPKK MEK5b (U71087) change factor” value was −0.7, the “MAPKKK5; ASK1 (U67156) change factor” value was −4.7 and the “MEIS2 (AF017418) change factor” value was −1.3. For the same compound, the “MMP10 (X07820) change factor” value was 2.2, the “MMP-1 (M13509) change factor” value was −0.22 and the “MMP-3 (X05232) change factor” value was 0.93. The “N-RAS (X02751) change factor” value was −0.01.

Source: patent US20160304957A1, “TREATMENT AND MODULATION OF GENE EXPRESSION AND SKIN AGING” (DSM NUTRITIONAL PRODUCTS LTD., priority 2006, published 2016)
